Reference: US8476298B2 (Exelixis, Inc., priority 2003, dated 2013)
pIC50: −log10 of the molar value.

Tests used:
[1] = biological target: T1, KDR (baculovirus expressed human KDR kinase domain D807-V1356) (Homo sapiens, UniProt P35968); experiment: biochemical;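 further: Luciferase-coupled chemiluminescent kinase assay, activity read as percent ATP left after 4 h reaction at ambient temperature, ATP near KM, 10-point dose-response in 384-well plates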
T1 construct: human KDR kinase domain D807-V1356; host or cells: baculovirus expression
T1 sequence (P35968 807-1356): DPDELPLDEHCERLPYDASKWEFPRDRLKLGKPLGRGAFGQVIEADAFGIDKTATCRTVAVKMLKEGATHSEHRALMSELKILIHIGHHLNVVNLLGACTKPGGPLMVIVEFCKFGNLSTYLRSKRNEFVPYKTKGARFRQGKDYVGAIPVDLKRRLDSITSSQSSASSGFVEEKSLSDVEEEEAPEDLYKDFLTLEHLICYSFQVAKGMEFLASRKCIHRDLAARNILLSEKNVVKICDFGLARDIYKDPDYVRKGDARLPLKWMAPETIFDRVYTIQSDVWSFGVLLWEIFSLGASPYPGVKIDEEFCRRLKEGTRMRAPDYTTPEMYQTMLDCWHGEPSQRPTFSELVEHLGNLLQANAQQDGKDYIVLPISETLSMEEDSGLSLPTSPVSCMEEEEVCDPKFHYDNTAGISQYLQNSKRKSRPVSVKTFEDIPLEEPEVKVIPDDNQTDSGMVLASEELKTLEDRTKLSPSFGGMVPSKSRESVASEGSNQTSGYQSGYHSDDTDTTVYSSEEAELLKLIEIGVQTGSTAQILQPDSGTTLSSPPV

[2] = biological target: T2, c-Met (baculovirus expressed human c-Met kinase domain P948-S1343) (Homo sapiens, UniProt P08581); experiment: c-Met Luciferase-Coupled Chemiluminescent Kinase assay (LCCA); type: biochemical;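 further: kinase activity read as percent ATP left after reaction, by luciferase-luciferin chemiluminescence, with 1 µM ATP and 1 µM poly-EY substrate, 2 h at ambient temperature, 10-point dose-response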
T2 construct: human c-Met kinase domain P948-S1343; host or cells: baculovirus expression
T2 sequence (P08581 1011-1343 limits assumed): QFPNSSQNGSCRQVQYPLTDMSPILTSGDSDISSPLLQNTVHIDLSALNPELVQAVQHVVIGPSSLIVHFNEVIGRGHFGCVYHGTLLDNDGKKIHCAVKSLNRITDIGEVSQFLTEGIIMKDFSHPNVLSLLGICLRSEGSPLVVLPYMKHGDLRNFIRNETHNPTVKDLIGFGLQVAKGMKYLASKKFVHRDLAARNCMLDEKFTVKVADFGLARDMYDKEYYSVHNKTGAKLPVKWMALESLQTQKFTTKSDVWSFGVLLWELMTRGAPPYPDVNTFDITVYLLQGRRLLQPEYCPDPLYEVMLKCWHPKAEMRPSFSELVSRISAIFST

[3] = biological target: T3, Flt-4 (baculovirus expressed human Flt-4 kinase domain D725-R1298) (Homo sapiens, UniProt P35916); experiment: flt-4 Alphascreen Tyrosine Kinase assay; type: biochemical; details: read-out: flt4 IC50;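 further: AlphaScreen chemiluminescence read-out of biotinylated poly(Glu,Tyr) 4:1 phosphorylation via streptavidin donor and PY100 anti-phosphotyrosine acceptor beads, ATP near KM, 1 hr kinase reaction, 10-point dose-response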
T3 construct: human Flt-4 kinase domain D725-R1298; host or cells: baculovirus expression
T3 sequence (P35916 725-1298 isoform P35916-1): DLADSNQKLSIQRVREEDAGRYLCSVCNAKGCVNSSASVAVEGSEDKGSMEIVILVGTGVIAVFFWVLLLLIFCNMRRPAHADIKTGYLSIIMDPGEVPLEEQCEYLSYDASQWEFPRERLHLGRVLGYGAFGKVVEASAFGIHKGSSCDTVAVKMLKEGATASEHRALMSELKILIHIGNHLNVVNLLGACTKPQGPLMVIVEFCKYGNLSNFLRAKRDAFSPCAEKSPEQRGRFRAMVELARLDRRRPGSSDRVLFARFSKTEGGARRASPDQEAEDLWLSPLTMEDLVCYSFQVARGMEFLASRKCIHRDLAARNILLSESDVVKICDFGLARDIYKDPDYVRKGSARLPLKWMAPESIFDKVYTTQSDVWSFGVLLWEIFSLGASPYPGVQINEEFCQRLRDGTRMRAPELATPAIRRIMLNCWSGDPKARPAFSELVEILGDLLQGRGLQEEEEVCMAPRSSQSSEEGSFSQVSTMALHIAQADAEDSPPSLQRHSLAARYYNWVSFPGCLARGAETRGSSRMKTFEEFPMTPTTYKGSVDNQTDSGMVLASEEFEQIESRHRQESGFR

c-Kit kinase = c-Kit kinase (Homo sapiens, UniProt P10721); experiment: c-Kit AlphaScreen kinase assay; type: biochemical;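 further: c-Kit kinase phosphorylating biotinylated poly(Glu,Tyr), ATP near its KM, 1 h reaction at ambient temperature, AlphaScreen chemiluminescence with streptavidin donor and anti-phosphotyrosine acceptor beads, 10-point inhibitor titration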
c-Kit kinase, sequence (P10721 26-976): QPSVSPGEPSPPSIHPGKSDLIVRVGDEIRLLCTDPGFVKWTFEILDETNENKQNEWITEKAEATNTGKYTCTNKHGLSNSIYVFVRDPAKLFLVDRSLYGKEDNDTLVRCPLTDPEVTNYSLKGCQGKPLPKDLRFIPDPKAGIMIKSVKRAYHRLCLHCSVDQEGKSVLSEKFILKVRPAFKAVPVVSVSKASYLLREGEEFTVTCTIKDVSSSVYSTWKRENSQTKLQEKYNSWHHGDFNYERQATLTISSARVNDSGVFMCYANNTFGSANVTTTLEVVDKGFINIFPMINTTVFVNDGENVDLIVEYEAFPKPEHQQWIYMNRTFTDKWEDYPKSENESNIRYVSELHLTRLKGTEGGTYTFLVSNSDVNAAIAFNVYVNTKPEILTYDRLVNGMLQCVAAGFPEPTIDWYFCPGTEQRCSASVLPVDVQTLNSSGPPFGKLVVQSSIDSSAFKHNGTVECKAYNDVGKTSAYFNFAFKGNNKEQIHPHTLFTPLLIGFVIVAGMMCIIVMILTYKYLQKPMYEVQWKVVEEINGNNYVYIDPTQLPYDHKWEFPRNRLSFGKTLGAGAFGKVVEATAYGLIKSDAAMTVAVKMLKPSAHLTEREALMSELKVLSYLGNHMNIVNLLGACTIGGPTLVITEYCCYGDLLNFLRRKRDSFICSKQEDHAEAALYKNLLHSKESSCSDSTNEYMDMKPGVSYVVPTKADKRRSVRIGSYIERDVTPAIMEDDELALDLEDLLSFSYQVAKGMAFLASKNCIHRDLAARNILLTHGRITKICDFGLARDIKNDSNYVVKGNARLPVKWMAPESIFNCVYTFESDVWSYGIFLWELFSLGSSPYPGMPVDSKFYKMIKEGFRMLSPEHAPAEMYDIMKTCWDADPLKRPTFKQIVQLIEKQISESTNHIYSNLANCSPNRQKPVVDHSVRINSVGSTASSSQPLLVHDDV

[4] = biological target: T4, Flt-3 (baculovirus expressed human Flt-3 kinase domain R571-S993) (Homo sapiens, UniProt P36888); experiment: biochemical; details: read-out: flt3 IC50;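 further: Luciferase-coupled chemiluminescent kinase assay, activity read as percent ATP left after a 3 h reaction at room temperature, ATP near KM, 10-point dose-response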
T4 construct: human Flt-3 kinase domain R571-S993; host or cells: baculovirus expression
T4 sequence (P36888 571-993): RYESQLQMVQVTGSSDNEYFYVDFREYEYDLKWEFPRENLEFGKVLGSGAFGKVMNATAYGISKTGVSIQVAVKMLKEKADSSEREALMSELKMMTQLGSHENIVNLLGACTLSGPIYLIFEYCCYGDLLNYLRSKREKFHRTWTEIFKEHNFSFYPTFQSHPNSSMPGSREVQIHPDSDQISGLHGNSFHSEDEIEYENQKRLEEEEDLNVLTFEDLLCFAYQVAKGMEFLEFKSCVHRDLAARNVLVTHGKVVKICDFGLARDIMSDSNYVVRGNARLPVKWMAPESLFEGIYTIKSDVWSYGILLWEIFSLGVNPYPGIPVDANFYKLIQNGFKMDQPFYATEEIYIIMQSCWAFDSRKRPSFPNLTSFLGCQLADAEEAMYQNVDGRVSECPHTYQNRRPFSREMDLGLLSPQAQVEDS

| Structure (SMILES) | pIC50 [1] | pIC50 [2] | pIC50 [3] | pIC50 (c-Kit kinase) | pIC50 [4] |
| --- | --- | --- | --- | --- | --- |
| CCN(CC)CCCOc1cc2nccc(Oc3ccc(NC(=O)C4(C(=O)Nc5ccc(F)cc5)CC4)cc3F)c2cc1OC [Example 336, N-(4-{[7-{[3-(diethylamino)propyl]oxy}-6-(methyloxy)quinolin-4-yl]oxy}-3-fluorophenyl)-N′-(4-fluorophenyl)cyclopropane-1,1-dicarboxamide] | > 7.30 | > 7.30 | > 7.30 | > 7.30 | > 7.30 |
| COc1cc2nccc(Oc3cc(Cl)c(NC(=O)C4(C(=O)Nc5ccc(F)cc5)CC4)cc3F)c2cc1OC [Example 337, N-(4-{[6,7-bis(methyloxy)quinolin-4-yl]oxy}-2-chloro-5-fluorophenyl)-N′-(4-fluorophenyl)cyclopropane-1,1-dicarboxamide] | 6.30 to 7.30 | > 7.30 | 5.30 to 6.30 | 6.30 to 7.30 | 5.30 to 6.30 |
| COc1cc2c(Oc3ccc(NC(=O)[C@@]4(C(=O)Nc5ccc(F)cc5)C[C@H]4C)cc3F)ccnc2cc1OCCCN1CCOCC1 [Example 342, (1S,2R)-N-[3-fluoro-4-({6-(methyloxy)-7-[(3-morpholin-4-ylpropyl)oxy]quinolin-4-yl}oxy)phenyl]-N′-(4-fluorophenyl)-2-methylcyclopropane-1,1-dicarboxamide] | > 7.30 | > 7.30 | > 7.30 | 6.30 to 7.30 | > 7.30 |
| COc1cc2c(Oc3ccc(NC(=O)[C@]4(C(=O)Nc5ccc(F)cc5)C[C@H]4C)cc3F)ccnc2cc1OCCCN1CCOCC1 [Example 343, (1R,2R)-N-[3-fluoro-4-({6-(methyloxy)-7-[(3-morpholin-4-ylpropyl)oxy]quinolin-4-yl}oxy)phenyl]-N′-(4-fluorophenyl)-2-methylcyclopropane-1,1-dicarboxamide] | > 7.30 | > 7.30 | > 7.30 | > 7.30 | > 7.30 |

Further lines, results first:

| pIC50 [1] | pIC50 [2] | pIC50 [3] | pIC50 (c-Kit kinase) | pIC50 [4] | Structure (SMILES) |
| --- | --- | --- | --- | --- | --- |
| > 7.30 | > 7.30 | > 7.30 | > 7.30 | 6.30 to 7.30 | COc1cc2c(Oc3ccc(NC(=O)C4(C(=O)Nc5ccc(F)cc5)CC4)c(C)c3)ccnc2cc1OCCCN1CCOCC1 [Example 331, N-(4-fluorophenyl)-N′-[2-methyl-4-({6-(methyloxy)-7-[(3-morpholin-4-ylpropyl)oxy]quinolin-4-yl}oxy)phenyl]cyclopropane-1,1-dicarboxamide] |
| > 7.30 | > 7.30 | > 7.30 | > 7.30 | > 7.30 | COc1cc2c(Oc3ccc(NC(=O)C4(C(=O)Nc5ccc(F)cc5)CC4)cc3F)ccnc2cc1OCCCN1CCNCC1 [Example 332, N-[3-fluoro-4-({6-(methyloxy)-7-[(3-piperazin-1-ylpropyl)oxy]quinolin-4-yl}oxy)phenyl]-N′-(4-fluorophenyl)cyclopropane-1,1-dicarboxamide] |
| > 7.30 | > 7.30 | > 7.30 | > 7.30 | > 7.30 | COc1cc2c(Oc3ccc(NC(=O)C4(C(=O)Nc5ccc(F)cc5)CC4)cc3F)ccnc2cc1OCCCN1CCN(C)CC1 [Example 333, N-{3-fluoro-4-[(6-(methyloxy)-7-{[3-(4-methylpiperazin-1-yl)propyl]oxy}quinolin-4-yl)oxy]phenyl}-N′-(4-fluorophenyl)cyclopropane-1,1-dicarboxamide] |
| > 7.30 | > 7.30 | > 7.30 | > 7.30 | > 7.30 | COc1cc2c(Oc3ccc(NC(=O)C4(C(=O)Nc5ccc(F)cc5)CC4)cc3F)ccnc2cc1OCC1CCN(C)CC1 [Example 334, N-{3-fluoro-4-[(6-(methyloxy)-7-{[(1-methylpiperidin-4-yl)methyl]oxy}quinolin-4-yl)oxy]phenyl}-N′-(4-fluorophenyl)cyclopropane-1,1-dicarboxamide] |
